From patent US8647657B2, “Polymeric devices for controlled release of active agents” (Durect Corporation, priority 2003, dated 2014)

Columns and labels:
LH = experiment: Blood level of LH after time-released leuprolide acetate device; format: in vivo, human
Procedure: (§1) For example, a 30 mg time-released dose of leuprolide acetate can be administered to an adult subject. The leuprolide acetate active agent is provided in a biodegradable polymer system to supply a polymeric device for controlled release of the active agent. […] The leuprolide acetate active agent is incorporated within the polymer system such that the polymer system provides for controlled release of the agent from the device. When the device is administered to the subject, for example, when it is implanted, the device releases the active agent in a controlled fashion without a lag period, or with a minimal lag period. In this manner, the leuprolide can be gradually released over a period of several months. After a period of two weeks, the subject's blood level of LH may be undetectable and the subject's blood level of FSH may be approximately 5 mIU/mL.
(§2) In another example, a dose of 1.88 mg time-released dose of leuprolide acetate can be administered to a subject. The leuprolide acetate active agent is provided in a biodegradable polymer system to supply a polymeric device for controlled release of the active agent. […] The leuprolide acetate active agent is incorporated within the polymer system such that the polymer system provides for controlled release of the agent from the device. […]

FSH = experiment: Blood level of FSH after time-released leuprolide acetate device; format: in vivo, human
Procedure: as §1, §2

[1] = 1.88 mg time-released dose in polymeric device, released over approximately one month
[2] = 30 mg time-released dose in polymeric device, adult subject, after two weeks

For CCNC(=O)[C@@H]1CCCN1C(=O)[C@H](CCCNC(=N)N)NC(=O)[C@H](CC(C)C)NC(=O)[C@@H](CC(C)C)NC(=O)[C@H](Cc1ccc(O)cc1)NC(=O)[C@H](CO)NC(=O)[C@H](Cc1c[nH]c2ccccc12)NC(=O)[C@H](Cc1c[nH]cn1)NC(=O)[C@@H]1CCC(=O)N1 [leuprolide acetate], the LH blood levels (LH; [1]) was “undetectable levels”, the “blood level of LH” value (LH; [2]) was “undetectable” and the FSH blood levels (FSH; [1]) was “undetectable levels”. The “blood level of FSH” value (FSH; [2]) was “approximately 5 mIU/mL”.
